Source: patent US12673070B2, “Treatment of sepsis and hypercytokinemia” (TX MEDIC AB, priority 2020, dated 2026)
Entries after “also recorded” stand apart in the source; their conditions may differ.

Tests used:
[1] = monoclonal antibodies neutralizing TNFα; cited from earlier work
IL-6 = experiment: Serum IL-6 in MND/ALS patients treated with LMW-DS (Luminex), Example 4; format: in vivo, human; details: 8 ALS patients; weekly 1.0 mg/kg s.c.; measured at 10 weeks of treatment
From the text: Serum samples were taken from Motor Neuron Disease (MND)/Amyotrophic Lateral Sclerosis (ALS) patients in a clinical trial (EudraCT Number: 2018-000668-28) prior to and 5, 10 and 24 weeks following treatment with LMW-DS (ILB®, Tikomed AB, Viken, Sweden, WO 2016/076780). Frozen serum samples were thawed and quantified for IL-6 using the Luminex assay system (Bio-Plex 200 system with Bio-Plex Manager software) according to manufacturer's instructions. After an initial screening visit, patients had weekly dosing of a single LMW-DS (ILB®, Tikomed AB, Viken, Sweden, WO 2016/076780) injection of 1.0 mg/kg body weight in saline into the subcutaneous fat of the lower abdomen with a maximum of 1.5 mL at each injection site.
Statistical analysis was performed using the non-parametric Mann-Whitney U test with p<0.05 considered significant.

human PBMCs = experiment: Cytokine secretion from stimulated human PBMCs (5-plex Luminex), Example 3; format: cell-based; details: 24 hours; for stimulated secretion of IL-1β / stimulated secretion of IL-8 / stimulated secretion of TNFα: highest concentration of LMW-DS
Protocol: Example 1 investigated the ability of LMW-DS to modify the secretion of IL-6 from human PBMCs arising from the use of various stimuli. The present study performed a broader analysis of the cell culture supernatants arising from Example 1. Thus, peripheral blood mononuclear cells (PBMC) were isolated from healthy donors through Ficoll-Paque PLUS density centrifugation. The PBMC were cultured at 2×10^5 cells/well in the absence (unstimulated PBS vehicle controls) or presence of stimulation (LPS, peptidoglycan, pokeweed mitogen, PHA-L, CpG+IL-15, or Cytostim) in the absence (vehicle) or presence of LMW-DS (ILB®, Tikomed AB, Viken, Sweden, WO 2016/076780; three concentrations; 600 μg/ml, 200 μg/ml and 60 μg/ml) for 24 hours at 37° C., 5% CO2.
Accordingly, the treatments were as follows for each PBMC donor: • i. Vehicle • ii. Simulation • iii. Stimulation+LMW-DS (60 μg/ml) • iv. Stimulation+LMW-DS (200 μg/ml) • v. Stimulation+LMW-DS (600 μg/ml)
with each assessed in triplicate such that the total numbers of samples were: • 1. LPS; 165 samples (from 11 donors) • 2. Peptidoglycan from Bacillus subtilis; 90 samples (from 6 donors) • 3. PHA-L; 90 samples (from 6 donors) • 4. 0.2 μM CpG+IL-15; 90 samples (from 6 donors) • 5. 1.0 μM CpG+IL-15; 90 samples (from 6 donors) • 6. Pokeweed mitogen; 90 samples (from 6 donors) • 7. 10 μl/ml Cytostim; 90 samples (from 6 donors) • 8. 30 μl/ml Cytostim; 90 samples (from 6 donors) • Total number of supernatant samples from all stimulations (all cell types)=795
Following treatment, cell culture supernatants were removed, centrifuged and stored at −20° C. before thawing for multiplex analysis of various cytokines using the 5-plex human magnetic Luminex assay from R&D systems (Cat. No. LXSAHM-05). Luminex analysis was carried out exactly following manufacturer's protocols.

human purified monocytes = experiment: Stimulated IL-6 release from human purified monocytes (ELISA), Example 2; format: cell-based; details: 24 hours, LMW-DS 60-600 μg/ml, heparin 2.0-20 μg/ml, dexamethasone 3.0 μM, n=10 donors; for LPS-stimulated IL-6 release into the cell culture supernatant: LPS (0.01 ng/ml); for peptidoglycan-stimulated IL-6 release into the cell culture supernatant: peptidoglycan (30 ng/ml)
Protocol: Peripheral blood mononuclear cells (PBMC) were isolated from healthy donors through Ficoll-Paque PLUS (GE Healthcare; 11778538) density centrifugation. Monocytes were purified using the EasySep™ human monocyte enrichment kit (StemCell) that purifies monocytes ‘untouched’ to maintain their phenotype.
Monocytes were cultured in the absence (unstimulated PBS vehicle controls) or presence of stimulation (LPS or peptidoglycan) in the absence (vehicle) or presence of LMW-DS (ILB®, Tikomed AB, Viken, Sweden, WO 2016/076780; three concentrations: 600 μg/ml, 200 μg/ml and 60 μg/ml), heparin (2.0, 6.0 or 20 μg/ml; equivalent to 0.406, 1.218 and 4.06 units/ml; Sigma Aldrich) or dexamethasone (3.0 μM; Sigma Aldrich) for 24 hours at 37° C., 5% CO2. Following centrifugation, cell culture supernatants were removed and stored at −20° C. awaiting analysis for IL-6 by ELISA. Levels of IL-6 were quantified in the supernatant by ELISA (R&D systems) according to manufacturer's instructions.

[2] = test system: human peripheral blood mononuclear cells (PBMCs); experiment: Stimulated release of IL-6 from human PBMCs in vitro (ELISA), Example 1; format: cell-based; details: 24 hours
Protocol: PBMCs were isolated from healthy donors through Ficoll-Paque PLUS (GE Healthcare; 11778538) density centrifugation. PBMC were cultured at 2×10^5 cells/well in the absence (unstimulated phosphate-buffered saline (PBS) vehicle controls) or presence of stimulation (lipopolysaccharide (LPS), peptidoglycan, pokeweed mitogen, phytohemagglutinin-L (PHA-L), CpG+IL-15, or Cytostim) in the absence (vehicle) or presence of LMW-DS (ILB®, Tikomed AB, Viken, Sweden, WO 2016/076780) at three concentrations; 60 μg/ml, 200 μg/ml and 600 μg/ml for 24 hours at 37° C., 5% CO2. Following centrifugation, cell culture supernatants were removed and stored at −20° C. awaiting analysis for IL-6 by ELISA. Levels of IL-6 were quantified in the supernatant by ELISA (R&D systems; DY206) according to manufacturer's instructions.

[3] = Cytostim stimulated PBMC, listed as Dextran sulfate
[4] = LPS (0.01 ng/ml) stimulated PBMC, 60, 200, 600 μg/ml
[5] = LPS (0.01 ng/ml) stimulated PBMC, 60, 200, 600 μg/ml, listed as Dextran sulfate
[6] = LPS (0.01 ng/ml) stimulated PBMC
[7] = LPS (0.01 ng/ml) stimulated PBMC, listed as Dextran sulfate
[8] = PHA-L (1.0 μg/ml) stimulated PBMC, 60, 200, 600 μg/ml
[9] = PHA-L (1.0 μg/ml) stimulated PBMC
[10] = PHA-L (1.0 μg/ml) stimulated PBMC, listed as Dextran sulfate
[11] = peptidoglycan (30 ng/ml) stimulated PBMC
[12] = pokeweed mitogen (1.0 μg/ml) stimulated PBMC, 60, 200, 600 μg/ml
[13] = pokeweed mitogen (1.0 μg/ml) stimulated PBMC, 60, 200, 600 μg/ml, listed as dextran sulfate
[14] = pokeweed mitogen (1.0 μg/ml) stimulated PBMC

For infliximab, the half-life [1] is given as “around 14 days”.
For “low molecular weight dextran sulfate [LMW-DS]”, the “serum IL-6 levels as % of Pre-LMW-DS levels” value (IL-6) was “statistically significant decrease”, the “secretion of IL-8” value (human PBMCs; CpG+IL-15 stimulated PBMC) was “little impact” and the IL-10 secretion (human PBMCs; Cytostim stimulated PBMC, 60, 200, 600 μg/ml) was “concentration dependent large reduction”. For the same substance, the IL-10 secretion (human PBMCs; Cytostim stimulated PBMC, 60, 200, 600 μg/ml, listed as Dextran sulfate) was “reduction”, the “secretion of IFNγ” value (human PBMCs; Cytostim stimulated PBMC) was “small reductions” and the “secretion of IL-1β” value (human PBMCs; Cytostim stimulated PBMC) was “small reductions”. For the same substance, the “secretion of IL-8” value (human PBMCs; Cytostim stimulated PBMC) was “small reductions”, the “secretion of TNFα” value (human PBMCs; Cytostim stimulated PBMC) was “small reductions” and the “secretion of IFNγ” value (human PBMCs; [3]) was “reduction”. For the same substance, the “secretion of IL-8” value (human PBMCs; [3]) was “reduction”, the “secretion of TNFα” value (human PBMCs; [3]) was “reduction” and the “secretion of IFNγ” value (human PBMCs; [4]) was “concentration dependent but small reduction”. The “secretion of IL-10” value (human PBMCs; [4]) was “concentration dependent but small reduction”, the “secretion of IFNγ” value (human PBMCs; [5]) was “reduction” and the “secretion of IL-10” value (human PBMCs; [5]) was “reduction”. The “stimulated secretion of IL-1β” value (human PBMCs; [6]) was “modest reduction”, the “stimulated secretion of IL-8” value (human PBMCs; [6]) was “modest reduction” and the “stimulated secretion of TNFα” value (human PBMCs; [6]) was “modest reduction”. For the same substance, the “stimulated secretion of IL-1β” value (human PBMCs; [7]) was “reduction”, the “stimulated secretion of IL-8” value (human PBMCs; [7]) was “reduction” and the “stimulated secretion of TNFα” value (human PBMCs; [7]) was “reduction”. For the same substance, the IL-10 secretion (human PBMCs; [8]) was “large, concentration dependent decrease”, the IL-10 secretion (human PBMCs; PHA-L (1.0 μg/ml) stimulated PBMC, 60, 200, 600 μg/ml, listed as Dextran sulfate) was “reduction” and the “stimulated release of IFNγ” value (human PBMCs; [9]) was “small decreases”. The “stimulated release of IL-8” value (human PBMCs; [9]) was “small decreases”, the “stimulated release of TNFα” value (human PBMCs; [9]) was “small decreases” and the “stimulated release of IFNγ” value (human PBMCs; [10]) was “reduction”. The “stimulated release of TNFα” value (human PBMCs; [10]) was “reduction”, the IL-1β secretion (human PBMCs; [11]) was “associated increases” and the TNFα secretion (human PBMCs; [11]) was “associated increases”. The “cytokine release (IL-8)” value (human PBMCs; peptidoglycan (30 ng/ml) stimulated PBMC, up to highest concentration tested) was “little evidence of LMW-DS, even at the highest concentration tested, of causing a general reduction in cytokine release”, the IL-10 secretion (human PBMCs; [12]) was “concentration-dependent decrease” and the IL-10 secretion (human PBMCs; [13]) was “reduction”. The “secretion of IFNγ” value (human PBMCs; [14]) was “not impacted generally”, the “secretion of IL-1β” value (human PBMCs; [14]) was “not impacted generally” and the “secretion of IL-8” value (human PBMCs; [14]) was “not impacted generally”. The “secretion of TNFα” value (human PBMCs; [14]) was “not impacted generally”, the “LPS-stimulated IL-6 release into the cell culture supernatant” value (human purified monocytes) was “concentration dependent statistically significant inhibition” and the “LPS-stimulated IL-6 release into the cell culture supernatant” value (human purified monocytes; listed as Dextran sulfate) was “concentration dependent reduction”. For the same substance, the “peptidoglycan-stimulated IL-6 release into the cell culture supernatant” value (human purified monocytes) was “concentration dependent statistically significant increase”, the IL-6 release ([2]; CpG (0.2 μM)+IL-15 (15 ng/ml) stimulated PBMC) was “not generally impacted” and the IL-6 release ([2]; Cytostim (10 μl/ml) stimulated PBMC) was “not generally impacted”. The “IL-6 release into the cell culture supernatant” value [2, 4] was “concentration dependent and statistically significant reduction”, the “IL-6 release into the cell culture supernatant” value [2, 5] was “concentration dependent reduction” and the “IL-6 release into the cell culture supernatant” value ([2]; LPS (0.01 ng/ml) stimulated PBMC, 60, 200, 600 μg/ml, listed as dextran sulfate) was “suppress IL-6 cytokine production”. For the same substance, the IL-6 release [2, 8] was “inhibited significantly in a concentration-dependent manner”, the IL-6 release ([2]; higher concentration CpG (1.0 μM)+IL-15 (15 ng/ml) stimulated PBMC) was “no general impact” and the IL-6 release ([2]; higher concentration CpG (1.0 μM)+IL-15 (15 ng/ml) stimulated PBMC, listed as dextran sulfate) was “not significantly affecting”. For the same substance, the IL-6 release ([2]; higher concentration Cytostim (30 μl/ml) stimulated PBMC) was “no general impact”, the IL-6 release ([2]; higher concentration Cytostim (30 μl/ml) stimulated PBMC, listed as dextran sulfate) was “not significantly affecting” and the “IL-6 release into the cell culture supernatant” value ([2]; peptidoglycan (30 ng/ml) stimulated PBMC, 60, 200, 600 μg/ml) was “little evidence of LMW-DS, even at the highest concentration tested, of causing a general reduction in IL-6 release”. The “IL-6 release into the cell culture supernatant” value ([2]; peptidoglycan (30 ng/ml) stimulated PBMC, 60, 200, 600 μg/ml, listed as dextran sulfate) was “not significantly affecting”, the IL-6 release [2, 12] was “not impacted generally” and the IL-6 release [2, 13] was “not significantly affecting”.
In the case of certolizumab, the half-life [1] is given as “around 14 days”.
For adalimumab, the half-life [1] is listed as “around 14 days”.
For heparin [reference compound], the “LPS-stimulated IL-6 release into the cell culture supernatant” value (human purified monocytes) was “concentration dependent statistically significant enhancement; also recorded: did not significantly suppress IL-6 levels in LPS activated monocytes but rather increased the levels” and the “peptidoglycan-stimulated IL-6 release into the cell culture supernatant” value (human purified monocytes) was “enhancement was mirrored to some extent by heparin although the trend did not reach statistical significance”.
